# Results published in patent US12286632B2, “Rationally-designed synthetic peptide shuttle agents for delivering polypeptide cargos from an extracellular space to the cytosol and/or nucleus of a target eukaryotic cell, uses thereof, methods and kits relating to same” (Feldan Bio Inc., priority 2016, dated 2025).
# Ends that are not written are not given here. Peptide text beside a SMILES is read from it.
# Columns and labels:
# in vitro [1] = settings: human, HeLa cells
# HeLa cells = assay: GFP-NLS protein transduction assay (flow cytometry: Pos cells %, viability %, relative fluorescence intensity; microscopy); settings: for Mean % cells with GFP signal (±St Dev.; n = 3): Table B3, HeLa cells, GFP-NLS cargo
# in vitro [2] = settings: human, HeLa cells; remark: listed apart in the source
# [3] = Cell viability (%) (±St. Dev.; n = 3)
# [4] = Table 10.3a, Protocol B, HeLa, shuttle 50 μM, GFP-NLS 5 μM, 10 seconds
# [5] = Table 10.3e, Protocol B, HeLa, shuttle 20 μM, GFP-NLS 5 μM, 1 minute
# [6] = Cell viability (%) (±St Dev.; n = 3)
molecule,measurement,setting,value
CSCC[C@H](NC(=O)[C@H](CCCCN)NC(=O)[C@H](CC(N)=O)NC(=O)[C@H](CC(C)C)NC(=O)[C@H](Cc1c[nH]c2ccccc12)NC(=O)[C@H](Cc1ccccc1)NC(=O)[C@H](CS)NC(=O)[C@H](CC(C)C)NC(=O)[C@H](Cc1ccccc1)NC(=O)[C@H](CCC(N)=O)NC(=O)[C@H](Cc1c[nH]cn1)NC(=O)[C@H](Cc1c[nH]cn1)NC(=O)[C@H](Cc1c[nH]cn1)NC(=O)[C@H](Cc1c[nH]cn1)NC(=O)[C@H](Cc1c[nH]cn1)NC(=O)[C@@H](N)Cc1c[nH]cn1)C(=O)NCC(=O)N[C@@H](CCCCN)C(=O)N[C@@H](Cc1c[nH]cn1)C(=O)N[C@@H](CC(N)=O)C(=O)N[C@H](C(=O)N[C@H](C(=O)N[C@@H](Cc1c[nH]c2ccccc12)C(=O)N[C@@H](Cc1c[nH]cn1)C(=O)NCC(=O)N[C@@H](CCCNC(=N)N)C(=O)N[C@@H](Cc1c[nH]cn1)C(=O)N[C@@H](CC(C)C)C(=O)N[C@@H](CCCCN)C(=O)N[C@@H](CS)C(=O)N[C@@H](Cc1c[nH]cn1)C(=O)N[C@@H](CCCCN)C(=O)N[C@@H](CCCNC(=N)N)C(=O)NCC(=O)N[C@@H](CCCCN)C(=O)NCC(=O)O)C(C)C)[C@@H](C)O [FSN3] (H-HHHHHHQFLCFWLNKMGKHNTVWHGRHLKCHKRGKG-OH; N-terminus and C-terminus assumed),viability,in vitro [1]; [3],97.2 ± 2.03%
CC(C)C[C@H](NC(=O)[C@H](CC(C)C)NC(=O)[C@H](CCCNC(=N)N)NC(=O)[C@H](CCCNC(=N)N)NC(=O)[C@H](Cc1c[nH]c2ccccc12)NC(=O)[C@H](CC(C)C)NC(=O)[C@H](Cc1ccc(O)cc1)NC(=O)[C@H](CC(C)C)NC(=O)[C@H](CC(C)C)NC(=O)[C@H](Cc1c[nH]cn1)NC(=O)[C@H](Cc1c[nH]cn1)NC(=O)[C@H](Cc1c[nH]cn1)NC(=O)[C@H](Cc1c[nH]cn1)NC(=O)[C@H](Cc1c[nH]cn1)NC(=O)[C@@H](N)Cc1c[nH]cn1)C(=O)N[C@@H](CCCCN)C(=O)N[C@@H](Cc1ccccc1)C(=O)N[C@@H](Cc1c[nH]c2ccccc12)C(=O)N[C@@H](CS)C(=O)N[C@@H](C)C(=O)NCC(=O)N[C@@H](CCCNC(=N)N)C(=O)N[C@@H](CCCNC(=N)N)C(=O)N[C@H](C(=O)N[C@@H](Cc1ccc(O)cc1)C(=O)N[C@@H](C)C(=O)N[C@@H](CCCCN)C(=O)N[C@@H](CS)C(=O)N[C@@H](C)C(=O)N[C@@H](CCCCN)C(=O)N[C@@H](C)C(=O)N[C@@H](Cc1ccc(O)cc1)C(=O)NCC(=O)N[C@@H](CS)C(=O)N[C@@H](Cc1ccccc1)C(=O)O)C(C)C [FSN4] (H-HHHHHHLLYLWRRLLKFWCAGRRVYAKCAKAYGCF-OH; N-terminus and C-terminus assumed),Mean % cells with GFP signal (±St Dev.; n = 3),HeLa cells,5.84 ± 0.49%
same,viability,in vitro [1]; [3],90.5 ± 4.18%
"N=C(N)NCCC[C@H](NC(=O)[C@H](CCCNC(=N)N)NC(=O)[C@H](CCCNC(=N)N)NC(=O)[C@H](CCC(N)=O)NC(=O)[C@H](CCCNC(=N)N)NC(=O)[C@H](CCCNC(=N)N)NC(=O)[C@H](CCCCN)NC(=O)[C@H](CCCCN)NC(=O)[C@H](CCCNC(=N)N)NC(=O)CNC(=O)[C@@H](N)Cc1ccc(O)cc1)C(=O)O [TAT, reference compound]",Mean % cells with GFP signal (±St. Dev.; n = 3),"HeLa cells; Table 10.4, Protocol B, HeLa, peptide 50 μM, GFP-NLS 5 μM, 10 seconds",1.1 ± 0.27%
same,"GFP-NLS transduction (flow cytometry, in words)","HeLa cells; peptide 50 μM, GFP-NLS 5 μM, 10 seconds, Protocol B",not able to successfully transduce GFP-NLS
same,"viability at 10 s, 50 µM",in vitro [1],94.6 ± 0.44%
CC[C@H](C)[C@H](NC(=O)[C@@H](NC(=O)[C@H](Cc1ccccc1)NC(=O)[C@@H](N)CCCCN)[C@@H](C)O)C(=O)N[C@H](C(=O)N[C@@H](Cc1ccccc1)C(=O)N1CCC[C@H]1C(=O)N[C@@H](Cc1c[nH]cn1)C(=O)N[C@@H](CC(N)=O)C(=O)N[C@@H](CCC(N)=O)C(=O)N[C@@H](CCCCN)C(=O)NCC(=O)N[C@@H](CC(N)=O)C(=O)N[C@@H](Cc1c[nH]c2ccccc12)C(=O)N[C@@H](CCCCN)C(=O)N[C@@H](CC(N)=O)C(=O)N[C@H](C(=O)N1CCC[C@H]1C(=O)N[C@@H](CO)C(=O)N[C@@H](CC(N)=O)C(=O)N[C@@H](Cc1ccc(O)cc1)C(=O)N[C@@H](Cc1c[nH]cn1)C(=O)N[C@@H](Cc1ccc(O)cc1)C(=O)N[C@@H](CS)C(=O)N1CCC[C@H]1C(=O)N[C@@H](Cc1ccc(O)cc1)C(=O)N[C@@H](C)C(=O)N[C@@H](CCCNC(=N)N)C(=O)N[C@@H](C)C(=O)N[C@@H](C)C(=O)N[C@@H](C)C(=O)N[C@@H](CCCNC(=N)N)C(=O)N[C@@H](CCC(N)=O)C(=O)N[C@@H](C)C(=O)N[C@@H](CCCNC(=N)N)C(=O)N[C@@H](C)C(=O)O)C(C)C)C(C)C [VSVG-PTD4],Cell viability (%) (±St. Dev.; n = 3),HeLa cells; [4],100%
same,viability,in vitro [2],96.2 ± 2.57%
CC(C)C[C@H](NC(=O)[C@H](C)NC(=O)[C@H](CCCCN)NC(=O)[C@H](C)NC(=O)[C@H](CC(C)C)NC(=O)[C@H](CCCCN)NC(=O)[C@H](C)NC(=O)[C@H](CCC(=O)O)NC(=O)[C@H](Cc1c[nH]c2ccccc12)NC(=O)CNC(=O)[C@@H](NC(=O)[C@@H]1CCCN1C(=O)[C@H](CCCNC(=N)N)NC(=O)[C@H](CC(C)C)NC(=O)[C@H](CS)NC(=O)[C@@H](N)CC(C)C)C(C)C)C(=O)N[C@@H](C)C(=O)N[C@@H](CCCCN)C(=O)N[C@@H](C)C(=O)N[C@@H](CC(C)C)C(=O)N[C@@H](C)C(=O)N[C@@H](CCCCN)C(=O)N[C@@H](Cc1c[nH]cn1)C(=O)N[C@@H](CC(C)C)C(=O)N[C@@H](C)C(=O)N[C@@H](CCCCN)C(=O)N[C@@H](C)C(=O)N[C@@H](CC(C)C)C(=O)N[C@@H](C)C(=O)N[C@@H](CCCCN)C(=O)N[C@@H](C)C(=O)N[C@@H](CC(C)C)C(=O)N[C@@H](CCCCN)C(=O)N[C@@H](C)C(=O)N[C@@H](CS)C(=O)N[C@@H](CCC(=O)O)C(=O)N[C@@H](C)C(=O)O [Xentry-KALA] (H-LCLRPVGWEAKLAKALAKALAKHLAKALAKALKACEA-OH),viability,in vitro [2],75.3 ± 4.29%
HAHHAHHAHKWKLFKKIGAVLKVLTTGYARAAARQARA [3HA-CM18-PTD4],Cell viability (%) (±St. Dev.; n = 3),HeLa cells; [5],43.6 ± 2.8%
same,viability,in vitro [2],51.5 ± 4.83%
HHHAHHHKWKLFKKIGAVLKVLTTGYARAAARQARA [HA-CM18-PTD4],Cell viability (%) (±St. Dev.; n = 3),HeLa cells; [5],68.3 ± 4.1%
same,viability,in vitro [2],53.2 ± 4.62%
HHHHHHFRKLWLAIVRAKK [FSN8],viability,in vitro [1]; [3],94.5 ± 3.72%
HHHHHHHHHHHHKWKLFKKIGAVLKVLTTGYARAAARQARA [12His-CM18-PTD4],Cell viability (%) (±St. Dev.; n = 3),HeLa cells; [5],33.4 ± 4.3%
same,viability,in vitro [2],97.5 ± 1.57%
HHHHHHKKALLALALHHLAHLALHLALALKKAYARAAARQARA [His--PTD4],Cell viability (%) (±St. Dev.; n = 3),HeLa cells; [4],98 ± 1.5%
HHHHHHKLKLRSRLKWGRTQLWRALAKKALLHHHHHH [FSN2],Mean % cells with GFP signal (±St Dev.; n = 3),HeLa cells,12.13 ± 2.06%
same,viability,in vitro [1]; [3],91.3 ± 4.66%
HHHHHHKRKKKRRAKKKRAWLYLALLLWALALHHHHHH [FSD3],viability,in vitro [1]; [6],91.1 ± 6.37%
HHHHHHKRKRRSKKRKLWTQGWLLLALLALAHHHHHH [FSN1],Mean % cells with GFP signal (±St Dev.; n = 3),HeLa cells,9.14 ± 0.93%
same,viability,in vitro [1],94.3 ± 3.07%
HHHHHHKRQLKRKLRKWKRLLRLLRLLARLWLHHHHHH [FSD4],viability,in vitro [1]; [6],86.1 ± 8.15%
HHHHHHKWAKLLRAFAKAIKKLYARLARRQARTGHHHHHH [FSD13],viability,in vitro [1]; [6],49.5 ± 5.13%
HHHHHHKWKLFKKIGAVLKVLTTGGWTLNSAGYLLKINLKALAALAKKIL [His-CM18-Transportan (TPT)],Cell viability (%) (±St. Dev.; n = 3),"HeLa cells; Table 10.1, Protocol B, HeLa, shuttle 50 μM, GFP-NLS 5 μM, 10 seconds",41.3 ± 3.3%
same,Cell viability (%) (±St. Dev.; n = 3),HeLa cells; [4],41.3 ± 3.29%
HHHHHHKWKLFKKIGAVLKVLTTGGWTLNSAGYLLKINLKALAALAKKIL [His-CM18-Transportan],viability,in vitro [2],11.9 ± 1.07%
